{"source": "patent US20230136569A1", "about": "“USE OF NMN TO REDUCE IMMUNODEPRESSION AND IMMUNOSENESCENCE” (NUVAMID SA, priority 2020, published 2023)", "assay_type_in_all_cases": "in vivo", "key": {"[1]": {"tested_on": "CD4+ and CD8+ T cells (splenocytes)", "test": "Proliferation assay of CFSE-stained splenocytes from treated mice after stimulation", "details": "splenocytes of treated old mice, anti-CD3/CD28 beads 96 h", "experimental": "Proliferation assay: At D0+5 weeks, the splenocytes were marked with 2.5 μM CFSE and cultured at a concentration of 0.25×10^6 cells per well in a 96-well plate. The cells were stimulated with 2.5 μg InfluvacTetra® and incubated at 37° C. for 96 hours. The cells were then marked with anti-CD4 and CD8 antibodies and the proliferation of the T CD4+ and CD8+ cells was analysed by flow cytometry. The total splenocytes were stained with Carboxyfluorescein succinimidyl ester (CFSE) and stimulated with beads coated with anti-CD3/CD28 for 96 h. The mean fluorescence intensity of the CFSE was analysed and the ratio before and after stimulation was calculated."}, "[2]": {"tested_on": "B cells present in the spleen", "test": "Flow cytometry of B cells in the spleen of old mice", "details": "500 mg/kg p.o., 6 weeks", "experimental": "The administering of β-NMN at 500 mg/kg, of α-NMN at 500 mg/kg and of the vehicle (water) was obtained via oral route (p.o) in the drinking water to young and old mice. The solutions were prepared by dissolving the powder of β-NMN or α-NMN in the vehicle (water). The study comprised 4 groups each having 6 mice: • Group 1: young mice (aged 10 weeks)+drinking water (vehicle) • Groupe 2: old mice (aged 15 months)+drinking water (vehicle) • Group 3: old mice (aged 15 months)+compound I-B (alpha-NMN) in the drinking water • Group 4: old mice (aged 15 months)+compound I-A (beta-NMN) in the drinking water The water consumption of the mice was assessed per cage every other day. The mice were weighed every week. The mice in Group 3 were sacrificed after 4 weeks for organ collection and characterisation of T cell function. The mice in Group 4 were sacrificed after 6 weeks for organ collection and characterisation of T cell function. On the day of sacrifice, the mice were anaesthetised with Vetoflurane (isoflurane) and blood samples were taken from the retroorbital sinus. The blood was incubated for 30 minutes at ambient temperature and then centrifuged at 1300 g for 10 minutes. After sacrificing of the mice, the spleen, thymus, and bone marrow of each animal were removed. The thymus was weighed and measured to evaluate involution thereof. For illustration purposes, photos of the thymus were taken on 5 animals per group. The thymus was divided into two parts: one part was treated with formol for histological examination. The second part was treated for characterisation of the immune cells. For characterisation of the cells, the thymus and spleen were crushed through a sieve of […] over a 50 mL tube with a syringe plunger. The bone marrow was rinsed with RPMI culture medium using a needle and syringe. The cell suspension was then centrifuged at 400 g for 5 minutes at 4° C. Lysis of the red blood cells was also performed before the cell count and use thereof for cytometry. The isolated cells of the spleen, thymus and bone marrow were marked with antibodies in accordance with the following tables to identify the proportion of effector and memory naive T and B cells. The following B cells of the spleen were also examined for characterisation as a function of the combination of proteins on the surface thereof: [table] Measured parameters: The results of flow cytometry are expressed in number or as a proportion of cells per organ. The weight of the thymus is expressed in grams."}, "thymocytes": {"tested_on": "thymocytes", "test": "Flow cytometry of thymocytes from old mice", "details": "500 mg/kg p.o. in drinking water, 6 weeks (FIG. 3)", "experimental": "The administering of β-NMN at 500 mg/kg, of α-NMN at 500 mg/kg and of the vehicle (water) was obtained via oral route (p.o) in the drinking water to young and old mice. The solutions were prepared by dissolving the powder of β-NMN or α-NMN in the vehicle (water). The study comprised 4 groups each having 6 mice: • Group 1: young mice (aged 10 weeks)+drinking water (vehicle) • Groupe 2: old mice (aged 15 months)+drinking water (vehicle) • Group 3: old mice (aged 15 months)+compound I-B (alpha-NMN) in the drinking water • Group 4: old mice (aged 15 months)+compound I-A (beta-NMN) in the drinking water The water consumption of the mice was assessed per cage every other day. The mice were weighed every week. The mice in Group 3 were sacrificed after 4 weeks for organ collection and characterisation of T cell function. The mice in Group 4 were sacrificed after 6 weeks for organ collection and characterisation of T cell function. On the day of sacrifice, the mice were anaesthetised with Vetoflurane (isoflurane) and blood samples were taken from the retroorbital sinus. The blood was incubated for 30 minutes at ambient temperature and then centrifuged at 1300 g for 10 minutes. […] The thymus was weighed and measured to evaluate involution thereof. […] Measured parameters: The results of flow cytometry are expressed in number or as a proportion of cells per organ. […]"}}, "data": [{"smiles": "NC(=O)c1ccc[n+]([C@@H]2O[C@H](COP(=O)([O-])O)[C@@H](O)[C@H]2O)c1", "note": "(stereo in doubt) [I-A, nicotinamide mononucleotide]", "values": [{"measurement": "proliferation of CD4 cells", "setting": "[1]; compared with the three other groups (FIG. 9A)", "result": "significant increase in the proliferation of CD4 and CD8 cells"}, {"measurement": "proliferation of CD8 cells", "setting": "[1]; compared with the three other groups (FIG. 9B)", "result": "significant increase in the proliferation of CD4 and CD8 cells"}, {"measurement": "number of activated B cells in the spleen", "setting": "[2]; compared with the other groups (FIG. 6B)", "result": "increase in the number of activated B cells"}, {"measurement": "number of memory B cells in the spleen", "setting": "[2]; compared with the other groups (FIG. 6C)", "result": "increase"}, {"measurement": "number of germinal B cells in the spleen", "setting": "[2]; compared with the other groups (FIG. 6D)", "result": "increase"}, {"measurement": "number of B cells in the spleen", "setting": "[2]; compared with the other groups of mice (FIG. 6A)", "result": "significantly increased"}, {"measurement": "number of CD8+ thymocytes", "setting": "thymocytes", "result": "increase in the number of CD8+ thymocytes"}]}]}
